Experimental data: patent publication US20030083315A1, “Human chymase inhibitors” (priority 2000, published 2003)
pIC50: −log10 of the molar value.

Tests used:
[1] = molecular target: T1, recombinant human mast cell chymase (Homo sapiens, UniProt P23946); experiment: Inhibition of enzyme activity of recombinant human mast cell chymase; assay type: biochemical; settings: active-type human mast cell chymase, substrate succinyl-alanyl-histidyl-prolyl-phenylalanylparanitroanilide 0.5 mM, room temperature 5 min, absorption at 405
T1 construct: made in house; host or cells: insect cell (Tn 5) infected with recombinant baculovirus
T1 sequence (P23946 22-247): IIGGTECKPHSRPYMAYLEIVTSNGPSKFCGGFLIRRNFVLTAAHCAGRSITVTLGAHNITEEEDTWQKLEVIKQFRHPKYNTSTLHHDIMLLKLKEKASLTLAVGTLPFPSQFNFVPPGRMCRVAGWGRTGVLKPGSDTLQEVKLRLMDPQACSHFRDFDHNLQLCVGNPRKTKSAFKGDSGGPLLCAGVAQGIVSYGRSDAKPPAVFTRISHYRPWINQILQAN
Experimental: A recombinant pro-type human mast cell chymase was prepared according to the report by Urata et al., Journal of Biological Chemistry 17173, Vol. 266 (1991). That is, the product was purified from the supernatant of the culture broth of insect cell (Tn 5) infected with a recombinant baculovirus containing a cDNA encoding a human mast cell chymase by heparin sepharose (manufactured by Pharmacia Co.). The obtained chymase was further activated according to the report of Murakami et al., Journal of Biological Chemistry, 2218, Vol. 270 (1995), and then it was purified by heparin sepharose to yield an active-type human mast cell chymase.
To 50 μl of buffer A (0.5 to 3.0 M NaCl, 50 mM tris-HCl, pH 8.0) containing 1 to 5 ng of the active-type human mast cell chymase obtained by Example 19 was added 2 μl of a DMSO solution containing a compound of the present invention, and the mixture was made to react at room temperature for 5 min after the addition of 50 μl of the buffer A containing 0.5 mM of succinyl-alanyl-histidyl-prolyl-phenylalanylparanitroanilide (Bacchem Co.) as a substrate. The inhibition activity was determined by measuring the variation of the absorption at 405 nm with the passage of time.

[2] = Blood concentration after forced oral administration into rat stomach; assay type: in vivo; settings: SD male rat, 30 mg/kg forced into the stomach under starvation, serum, unchanged compound by HPLC; for AUC: read-out: AUC (extrapolation)
Experimental: By using a SD male rat, a compound having the compound number of 121, 127 or 363 was forcedly administered at a dose of 30 mg/kg into the stomach under starvation, and blood samples were taken out at 30 min, 1 hr, 2 hr, 4 hr and 8 hr after the administration. Directly after the collection of the blood samples, the serum component was separated, the compound of the present invention was extracted by a general method of solid extraction, and the obtained sample was subjected to HPLC analysis by using an ODS column to measured the amount of the unchanged compound.

[3] = In vitro metabolic test using hepatic microsome (Ms); assay type: in vitro ADME; settings: hepatic microsome 1.0 mg/mL, substrate 5.0 μM, 37° C.; for MR (maximum speed of metabolism): NADPH 1.0 mM
Experimental: Letting the amount of the unchanged body at the initial concentration (reaction time 0 min) 100%, the speed of metabolism is determined from the amount of the decrease of the unchanged body at each reaction time, and the maximum speed of metabolism (MR) is evaluated.
MR=(the substrate concentration at reaction time 0 min−the substance concentration after the reaction)÷reaction time÷protein concentration (nmol/min/mg-protein)

Structure (SMILES)	pIC50 [1]	Cmax [2] [µg/mL]	AUC [2] [µg·h/mL]	Remaining Rate (%) of Substrate at 30 min [3] [%]	MR (maximum speed of metabolism) [3] [nmol/min/mg-protein]
Cc1ccc(C)c(Cn2c(SCCCC(=O)O)nc3cc(C#N)ccc32)c1 [Compound No. 337, 4-(1-((2,5-dimethylphenyl)methyl)-5-cyanobenzimidazole-2-ylthio)butyric Acid]	7.00 to 8.00				
CCOc1ccc2c(c1)nc(SCCCC(=O)O)n2Cc1cccc2ccccc12 [Compound No. 128, 4-(1-((1-naphthyl)methyl)-5-ethoxybenzimidazole-2-ylthio)butyric acid]	7.00 to 8.00				
Cc1cccc2cccc(Cn3c(SCCCC(=O)O)nc4ccccc43)c12 [Compound No. 492, 4-(1-((8-methyl-1-naphthyl)methyl)benzimidazole-2-ylthio)butyric Acid]	8.00 to 9.00				
O=C(O)CCCSc1nc2cc(C(F)(F)F)ccc2n1Cc1cccc2ccccc12 [Compound No. 126, 4-(1-((1-naphthyl)methyl)-5-trifluoromethylbenzimidazole-2-ylthio)butyric Acid]	7.00 to 8.00				
CC(C)(CC(=O)O)C(=O)CSc1nc2ccccc2n1Cc1cccc2ccccc12 [Compound No. 494, 5-(1-((1-nanhthyl)methyl)benzimidazole-2-ylthio)-4-oxo-3,3-dimethylvaleric Acid]	7.00 to 8.00				
Cc1cc2nc(S(=O)(=O)CCCC(=O)O)n(Cc3cccc4ccccc34)c2cc1C [Compound No. 498, 4-(1-((1-naphthyl)methyl)-5,6-dimethylbenzimidazole-2-ylsulfonyl)butyric acid]	7.00 to 8.00				
O=C(O)CCCSc1nc2cc(F)c(F)cc2n1Cc1cccc2ccccc12 [Compound No. 131, 4-(1-((1-naphthyl)methyl)-5,6-difluorobenzimidazole-2-ylthio)butyric acid]	7.00 to 8.00				
Cc1cc2nc(SCCCC(=O)O)n(Cc3cccc4ccccc34)c2cc1C [Compound No. 129, 4-(1-((1-naphthyl)methyl)-5,6-dimethylbenzimidazole-2-ylthio)butyric acid]	8.00 to 9.00				
N#Cc1ccc2c(c1)nc(SCCCC(=O)O)n2Cc1cccc2ccccc12 [Compound No. 363, 4-(1-((1-naphthyl)methyl)-5-cyanobenzimidazole-2-ylthio)butyric acid]	7.00 to 8.00	77	182	57.6	0.147
O=C(O)CCCSc1nc2ccccc2n1Cc1cccc2ccccc12 [Compound No. 121, 4-(1-((1-naphthyl)methyl)benzimidazole-2-ylthio)butyric acid]	8.00 to 9.00	122	226	56.6	0.235
Cc1cc2nc(SCCCC(=O)O)n(Cc3cccc4cccc(C)c34)c2cc1C [Compound No. 493, 4-(1-((8-methyl-1-naphthyl)methyl)-5,6-dimethylbenzimidazole-2-ylthio)-butyric Acid]	8.00 to 9.00				
O=C(O)CCCCSc1nc2ccccc2n1Cc1cccc2ccccc12 [compound 497, 5-(1-((1-naphthyl)methyl)-benzimidazole-2-ylthio)valeric acid]	7.00 to 8.00				
COc1ccc2c(c1)nc(SCCCC(=O)O)n2Cc1cc(C)ccc1C [Compound No. 495, 4-(1-((2,5-dimethylphenil)methyl)-5-methoxybenzimidazole-2-ylthio)butyric Acid]	7.00 to 8.00				
O=C(O)CCSc1nc2ccccc2n1Cc1cccc2ccccc12 [Compound No. 496, 3-(1-((1-naphthyl)methyl)-benzimidazole-2-ylthio)propanoic acid]	7.00 to 8.00				
COc1ccc2c(c1)nc(SCCCC(=O)O)n2Cc1cccc2ccccc12 [Compound No. 127, 4-((1-((1-naphthyl)methyl)-5-methoxybenzimidazole)-2-ylthio)butyric acid]	8.00 to 9.00	76	181	21.6	0.190
